Values quoted from earlier work in patent publication US20160000504A1, “METHOD FOR TRAINING IMMUNE CELLS USING MILLIMETER WAVE THERAPY” (Electrohealing Holdings, Inc., priority 2014, published 2016).
Structures can show the parent of a compound that is named as a salt.

System: B16 melanoma cells
Details: 1 mg per kg thirty minutes prior to each treatment; MMWT 61.22 GHz, 5 day delay before first irradiation; groups seven and eight vs three and four (FIG. 2A vs FIG. 2B)

C=CCN1CC[C@]23c4c5ccc(O)c4O[C@H]2C(=O)CC[C@@]3(O)[C@H]1C5 [naloxone hydrochloride]
change in tumor size: effect of opioid antagonist on MMWT inhibition of tumor growth: blocks the beneficial effects of MMWT
